{
  "source": "patent US20250215052A1",
  "about": "“INHIBITORS OF PICK1 AND USES THEREOF” (University of Copenhagen, priority 2018, published 2025)",
  "tested_on": "PICK1",
  "assay": "Peptide accumulation in striatal neurons with PICK1 knock down or replacement",
  "type": "cell-based, rat",
  "details": "5 nM, 1 hour",
  "text": "For shRNA-mediated knock down and replacement studies of PICK1, striatal neurons were transduced at 14 DIV with three different lentivirus; FUGWH1sh18GFPPICK1 (GFP-PICK1WT), FUGWH1sh18eGFP (GFP-sh18) or FUGWH1sh18deleGFP (GFP). The replacement plasmid GFP-PICK1WT expresses a short hairpin (sh18) that targets endogenous PICK1 and a resistant eGFP tagged PICK1. The GFP control vector (GFP) was created by removing the short hairpin (Holst et al., 2013, Jensen et al., 2018). Lentiviruses were produced as described previously (Rasmussen et al., 2009).\nNeurons were rinsed in PBS and blocked in 0.05% Triton-X100 with 5% goat serum for 20 min-at room temperature. Subsequently, neurons were labelled with rabbit anti-DARRP32 (1:800) and chicken anti-GFP (1:2000) for 1 hour at room temperature, before incubation with 1:500 goat anti-rabbit Alexa-647 and goat anti-chicken Alexa-488 secondary antibodies.\nImages for quantification of peptide were acquired with a Zeiss LSM 710 laser-scanning microscopy. Quantification of the TMR-TAT-P4-(C5)2 intensity was performed by defining each neuron as a region of interest. The mean intensity values obtained from each neuron were subsequently normalized to the average of the intensity values of the GFP transduced neurons",
  "data": [
    {"substance": "TAMRA-YGRKKRRQRRR-PEG4-(HWLKV)2 [TMR-TAT-P4-(C5)2]", "values": [
      {"measurement": "peptide signal in sh18 + GFP-PICK1 neurons vs control (GFP)", "value": "significantly increased"}
    ]}
  ]
}
